The NIST ThermoML archive (doi:10.1021/je3013205)

Assay: xn = mol fraction of the nth substance listed
Settings: 101 kPa, Liquid, Vibrating tube method

OCCO [1,2-ethanediol] + NCCO
x1 = 1
Settings | mass density [kg/m3]
283.15 K | 1119.29
293.15 K | 1112.37
303.15 K | 1105.39
313.15 K | 1098.34
323.15 K | 1091.21
333.15 K | 1083.99
343.15 K | 1076.65

OCCO [1,2-ethanediol] + NCCOCCO
x1 = 1
Settings | mass density [kg/m3]
283.15 K | 1119.29
293.15 K | 1112.37
303.15 K | 1105.39
313.15 K | 1098.34
323.15 K | 1091.21
333.15 K | 1083.99
343.15 K | 1076.65

NCCOCCO [2-(2-aminoethoxy)ethanol] + CC(C)O
mass density [kg/m3]
Settings | x2 = 0 | x2 = 0.1002 | x2 = 0.2002 | x2 = 0.2999 | x2 = 0.3998 | x2 = 0.5001 | x2 = 0.6 | x2 = 0.7001 | x2 = 0.7999 | x2 = 0.9
283.15 K | 1063.9 | 1045.45 | 1024.83 | 1002.4 | 978.848 | 953.526 | 926.557 | 896.824 | 864.765 | 830.522
293.15 K | 1055.86 | 1037.41 | 1016.77 | 994.333 | 970.775 | 945.419 | 918.428 | 888.658 | 856.572 | 822.302
303.15 K | 1047.8 | 1029.32 | 1008.68 | 986.21 | 962.634 | 937.23 | 910.206 | 880.385 | 848.24 | 813.893
313.15 K | 1039.73 | 1021.21 | 1000.54 | 978.03 | 954.426 | 928.957 | 901.852 | 871.966 | 839.727 | 805.266
323.15 K | 1031.63 | 1013.07 | 992.342 | 969.77 | 946.127 | 920.579 | 893.378 | 863.375 | 831.011 | 796.354
333.15 K | 1023.46 | 1004.87 | 984.07 | 961.425 | 937.625 | 912.056 | 884.74 | 854.584 | 822.035 | 787.116
343.15 K | 1015.24 | 996.578 | 975.712 | 952.983 | 929.152 | 903.381 | 875.931 | 845.569 | 812.769 | 777.485

NCCOCCO [2-(2-aminoethoxy)ethanol] + CO
mass density [kg/m3]
Settings | x2 = 0 | x2 = 0.0999 | x2 = 0.1999 | x2 = 0.3001 | x2 = 0.4 | x2 = 0.5 | x2 = 0.6002 | x2 = 0.6999 | x2 = 0.8 | x2 = 0.9001
283.15 K | 1063.9 | 1055.89 | 1046 | 1034.44 | 1019.81 | 1002.23 | 980.617 | 953.558 | 916.98 | 868.243
293.15 K | 1055.86 | 1047.82 | 1037.87 | 1026.25 | 1011.56 | 993.898 | 972.194 | 945.032 | 908.292 | 859.298
303.15 K | 1047.8 | 1039.72 | 1029.71 | 1018.04 | 1003.27 | 985.526 | 963.722 | 936.443 | 899.545 | 850.287
313.15 K | 1039.73 | 1031.59 | 1021.52 | 1009.78 | 995.032 | 977.101 | 955.185 | 927.795 | 890.727 | 841.205
323.15 K | 1031.63 | 1023.41 | 1013.29 | 1001.48 | 986.54 | 968.618 | 946.586 | 919.061 | 881.797 | 832.01
333.15 K | 1023.46 | 1015.19 | 1004.99 | 993.102 | 978.075 | 960.052 | 937.892 | 910.228 | 872.764 | 822.672

NCCOCCO [2-(2-aminoethoxy)ethanol] + OCCO
mass density [kg/m3]
Settings | x2 = 0 | x2 = 0.0999 | x2 = 0.1998 | x2 = 0.2998 | x2 = 0.4001 | x2 = 0.4999 | x2 = 0.5999 | x2 = 0.7002 | x2 = 0.8 | x2 = 0.8998
283.15 K | 1063.9 | 1069.41 | 1074.47 | 1079.73 | 1084.82 | 1090.24 | 1095.7 | 1101.26 | 1107.46 | 1113.95
293.15 K | 1055.86 | 1061.43 | 1066.58 | 1071.94 | 1077.11 | 1082.67 | 1088.26 | 1093.92 | 1100.25 | 1106.86
303.15 K | 1047.8 | 1053.44 | 1058.65 | 1064.1 | 1069.38 | 1075.06 | 1080.79 | 1086.54 | 1093 | 1099.72
313.15 K | 1039.73 | 1045.41 | 1050.69 | 1056.23 | 1061.6 | 1067.42 | 1073.26 | 1079.13 | 1085.7 | 1092.53
323.15 K | 1031.63 | 1037.35 | 1042.69 | 1048.31 | 1053.78 | 1059.7 | 1065.66 | 1071.68 | 1078.32 | 1085.26
333.15 K | 1023.46 | 1029.22 | 1034.63 | 1040.32 | 1045.89 | 1051.9 | 1057.97 | 1064.11 | 1070.86 | 1077.9
343.15 K | 1015.24 | 1021.03 | 1026.5 | 1032.27 | 1037.92 | 1044.03 | 1050.2 | 1056.51 | 1063.3 | 1070.45
